Reference: ChEMBL document CHEMBL1136440, “Design and synthesis of novel RXR-selective modulators with improved pharmacological profile” (Bioorg Med Chem Lett, 2003)
Where “and” joins values, the source holds several entries; their conditions need not be identical. Equal values may be shown once.

Assays:
[1] = Tmax value in IRC mice; format: ADME, organism-based; settings: mouse, in vivo
[2] = Cmax value in IRC mice; format: ADME, organism-based; settings: mouse, in vivo
[3] = Area under curve at 0-8 hr in IRC mice after peroral administration; format: ADME, organism-based; parameters: time < 8 hr, route oral; settings: mouse, in vivo, po
[4] = target: T1, Retinoic acid receptor RXR-alpha (Homo sapiens, UniProt P19793); assay: In vitro antagonist activity against RXR alpha in CV-1 cells; format: functional, cell-based, Cercopithecidae
T1 sequence (P19793 whole entry): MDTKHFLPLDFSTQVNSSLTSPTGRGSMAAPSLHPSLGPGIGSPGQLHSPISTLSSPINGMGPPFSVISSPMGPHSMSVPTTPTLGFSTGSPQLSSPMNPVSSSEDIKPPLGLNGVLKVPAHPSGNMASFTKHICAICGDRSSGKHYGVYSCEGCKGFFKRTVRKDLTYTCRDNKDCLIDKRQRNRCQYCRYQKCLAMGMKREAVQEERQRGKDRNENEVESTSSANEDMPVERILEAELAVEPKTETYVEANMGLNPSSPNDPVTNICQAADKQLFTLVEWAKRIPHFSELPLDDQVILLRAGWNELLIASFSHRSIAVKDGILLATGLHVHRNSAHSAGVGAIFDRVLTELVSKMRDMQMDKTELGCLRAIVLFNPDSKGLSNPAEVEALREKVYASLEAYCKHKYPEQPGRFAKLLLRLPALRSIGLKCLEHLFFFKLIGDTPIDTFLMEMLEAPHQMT

[5] = target: T2, Retinoic acid receptor alpha (Homo sapiens) (UniProt P10276); assay: Agonist synergy against RAR alpha was tested along with 3 nM TTNPB; format: functional; settings: Cercopithecidae
T2 sequence (whole entry): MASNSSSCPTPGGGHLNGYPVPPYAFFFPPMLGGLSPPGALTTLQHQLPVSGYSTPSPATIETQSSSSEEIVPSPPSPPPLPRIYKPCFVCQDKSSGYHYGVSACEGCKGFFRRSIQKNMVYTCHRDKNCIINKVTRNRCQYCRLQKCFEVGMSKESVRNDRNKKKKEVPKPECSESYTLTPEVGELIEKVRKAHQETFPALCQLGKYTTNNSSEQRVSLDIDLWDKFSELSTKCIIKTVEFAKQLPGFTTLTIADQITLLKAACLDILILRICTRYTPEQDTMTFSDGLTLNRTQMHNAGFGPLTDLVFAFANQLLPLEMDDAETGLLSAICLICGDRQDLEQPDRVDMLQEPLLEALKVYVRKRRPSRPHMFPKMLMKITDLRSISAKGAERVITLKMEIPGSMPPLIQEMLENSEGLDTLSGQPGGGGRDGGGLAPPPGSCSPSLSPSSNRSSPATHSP

[6] = target: T3, Retinoic acid receptor beta (Homo sapiens, UniProt P10826); assay: Binding affinity against RAR beta receptor using [3H]ATRA as radioligand in CV-1 cells; format: cell-based, Cercopithecidae
T3 sequence (P10826 whole entry): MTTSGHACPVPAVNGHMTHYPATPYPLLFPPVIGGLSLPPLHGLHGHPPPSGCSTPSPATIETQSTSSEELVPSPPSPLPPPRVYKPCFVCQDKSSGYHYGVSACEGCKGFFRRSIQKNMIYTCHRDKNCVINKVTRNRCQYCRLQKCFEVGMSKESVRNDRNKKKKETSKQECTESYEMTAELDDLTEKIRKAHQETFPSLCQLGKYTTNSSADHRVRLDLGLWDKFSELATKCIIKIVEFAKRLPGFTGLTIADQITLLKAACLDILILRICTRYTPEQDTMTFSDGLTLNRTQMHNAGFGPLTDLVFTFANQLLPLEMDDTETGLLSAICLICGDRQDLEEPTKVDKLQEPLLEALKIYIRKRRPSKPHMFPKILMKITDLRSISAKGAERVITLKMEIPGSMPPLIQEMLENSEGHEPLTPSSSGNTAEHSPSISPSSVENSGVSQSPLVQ

[7] = target: T4, Retinoic acid receptor RXR-beta (Homo sapiens, UniProt P28702); assay: Displacement of [3H]9-cis-RA from RXR beta receptor in CV-1 cells; format: cell-based, Cercopithecidae
T4 sequence (P28702 whole entry): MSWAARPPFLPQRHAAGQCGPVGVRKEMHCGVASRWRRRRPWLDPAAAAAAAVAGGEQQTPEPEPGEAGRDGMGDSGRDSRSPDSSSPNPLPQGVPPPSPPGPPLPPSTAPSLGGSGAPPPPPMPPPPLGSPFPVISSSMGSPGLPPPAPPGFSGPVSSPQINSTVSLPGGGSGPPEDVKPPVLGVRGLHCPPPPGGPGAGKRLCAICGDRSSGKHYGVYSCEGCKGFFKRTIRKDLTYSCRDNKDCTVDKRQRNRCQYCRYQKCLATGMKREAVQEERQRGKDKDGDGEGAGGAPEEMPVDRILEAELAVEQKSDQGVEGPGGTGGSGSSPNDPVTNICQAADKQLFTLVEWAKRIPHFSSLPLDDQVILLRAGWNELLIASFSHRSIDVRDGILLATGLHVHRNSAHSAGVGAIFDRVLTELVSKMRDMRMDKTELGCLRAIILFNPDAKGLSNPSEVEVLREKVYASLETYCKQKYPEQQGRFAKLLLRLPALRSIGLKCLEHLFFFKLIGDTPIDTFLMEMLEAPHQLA

[8] = target: T5, Retinoic acid receptor alpha (Homo sapiens, UniProt P10276); assay: Binding affinity against RAR alpha receptor using [3H]ATRA as radioligand in CV-1 cells; format: cell-based, Cercopithecidae
T5 sequence (P10276 whole entry): T2 sequence (whole entry)

[9] = target: T6, Peroxisome proliferator-activated receptor gamma (Homo sapiens, UniProt P37231)
T6 sequence (P37231 whole entry): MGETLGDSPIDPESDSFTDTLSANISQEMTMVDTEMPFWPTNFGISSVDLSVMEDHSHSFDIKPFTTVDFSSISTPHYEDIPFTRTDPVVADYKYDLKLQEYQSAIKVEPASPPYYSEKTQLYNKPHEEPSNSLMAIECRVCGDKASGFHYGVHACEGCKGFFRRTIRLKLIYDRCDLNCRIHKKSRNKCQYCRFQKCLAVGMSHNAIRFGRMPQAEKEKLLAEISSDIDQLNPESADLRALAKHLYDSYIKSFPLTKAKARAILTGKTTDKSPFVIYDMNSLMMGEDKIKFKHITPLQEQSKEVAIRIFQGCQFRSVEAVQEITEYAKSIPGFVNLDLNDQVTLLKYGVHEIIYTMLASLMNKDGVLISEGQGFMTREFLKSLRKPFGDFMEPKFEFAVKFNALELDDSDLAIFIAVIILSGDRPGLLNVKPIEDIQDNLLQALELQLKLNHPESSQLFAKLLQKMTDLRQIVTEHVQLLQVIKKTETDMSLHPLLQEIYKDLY
Description: In vitro agonistic activity against PPAR gamma along with 100 nM BRL-49653

[10] = target: T6, Peroxisome proliferator-activated receptor gamma; remark: listed apart in the source
Description: In vitro agonist efficacy against PPAR gamma along with 100 nM BRL-49653

[11] = target: T1, Retinoic acid receptor RXR-alpha; assay: biochemical
Description: Binding affinity against RXR alpha receptor using [3H]9-cis-RA as radioligand in CV-1 cells

| Compound | Tmax [1] [h] | Cmax [2] | AUC(0-t) at 8 h [3] [µg·h/mL] | IC50 [4] [nM] | Synergy [5] [nM] | Ki [6] [nM] | Ki [7] [nM] | Ki [8] [nM] | EC50 [9] [nM] | EC50 [10] [nM] | Ki [11] [nM] |
| --- | --- | --- | --- | --- | --- | --- | --- | --- | --- | --- | --- |
| CCOc1c(\C(C)=C/C=C/C(C)=C/C(=O)O)cc(C(F)(F)C(F)(F)F)cc1C(C)C | 1 | 4430 ng/mL and 10.2 µM | 14.4 | 5.3 | 2.8 | > 10000 | 8.5 | > 10000 | 0.7 | 99 | 6.3 |
| C/C(=C/C=C/C(C)=C/C(=O)O)c1cc(-c2ccccc2F)cc(C(C)C)c1OCC(F)F | 1 | 4140 ng/mL and 9.31 µM | 15.2 | 3.1 | 1.5 | 3930 | 16 | 6760 | 0.4 | 46 | 2.3 |
